Test results from PMC2430034, “Structural Development Studies of Subtype-Selective Ligands for Peroxisome Proliferator-Activated Receptors (PPARs) Based on the 3,4-Disubstituted Phenylpropanoic Acid Scaffold as a Versatile Template” (PPAR Research, 2008).

Legend:
Format in all cases: cell-based
LXRα = target: T1, LXRα (Homo sapiens, UniProt Q13133); assay: Nuclear receptor cross-reactivity transactivation, LXRα; details: concentrations up to 300 nM (Figure 7)
T1 construct: expressed in transfected cells
T1 sequence (Q13133 1-447): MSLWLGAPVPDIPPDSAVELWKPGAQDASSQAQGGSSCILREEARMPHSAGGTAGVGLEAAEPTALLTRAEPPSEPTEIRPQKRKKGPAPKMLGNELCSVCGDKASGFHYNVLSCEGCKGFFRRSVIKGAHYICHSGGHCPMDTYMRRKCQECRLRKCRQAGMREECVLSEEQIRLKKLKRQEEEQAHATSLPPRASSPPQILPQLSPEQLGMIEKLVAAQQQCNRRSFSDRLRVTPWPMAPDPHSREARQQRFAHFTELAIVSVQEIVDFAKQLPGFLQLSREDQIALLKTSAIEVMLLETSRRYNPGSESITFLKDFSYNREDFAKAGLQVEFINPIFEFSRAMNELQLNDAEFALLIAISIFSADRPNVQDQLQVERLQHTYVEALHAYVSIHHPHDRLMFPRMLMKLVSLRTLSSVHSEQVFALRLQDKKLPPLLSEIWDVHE

RXRα = target: T2, RXRα (Homo sapiens, UniProt P19793); assay: Nuclear receptor cross-reactivity transactivation, RXRα; details: concentrations up to 300 nM (Figure 7)
T2 construct: expressed in transfected cells
T2 sequence (P19793 1-462): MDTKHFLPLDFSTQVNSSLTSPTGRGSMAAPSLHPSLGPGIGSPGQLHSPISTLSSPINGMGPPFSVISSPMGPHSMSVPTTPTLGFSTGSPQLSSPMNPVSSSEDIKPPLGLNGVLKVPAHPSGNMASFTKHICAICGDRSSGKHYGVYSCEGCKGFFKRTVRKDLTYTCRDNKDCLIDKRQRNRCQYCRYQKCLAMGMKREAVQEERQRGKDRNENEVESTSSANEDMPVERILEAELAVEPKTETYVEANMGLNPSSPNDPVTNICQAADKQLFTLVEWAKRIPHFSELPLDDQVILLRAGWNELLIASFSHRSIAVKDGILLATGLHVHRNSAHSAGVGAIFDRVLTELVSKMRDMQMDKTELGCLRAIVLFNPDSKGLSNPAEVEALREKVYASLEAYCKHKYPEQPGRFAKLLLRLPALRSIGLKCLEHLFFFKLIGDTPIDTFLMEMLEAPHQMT

VDR = target: T3, VDR (Homo sapiens, UniProt P11473); assay: Nuclear receptor cross-reactivity transactivation, VDR; details: concentrations up to 300 nM (Figure 7)
T3 construct: expressed in transfected cells
T3 sequence (P11473 1-427): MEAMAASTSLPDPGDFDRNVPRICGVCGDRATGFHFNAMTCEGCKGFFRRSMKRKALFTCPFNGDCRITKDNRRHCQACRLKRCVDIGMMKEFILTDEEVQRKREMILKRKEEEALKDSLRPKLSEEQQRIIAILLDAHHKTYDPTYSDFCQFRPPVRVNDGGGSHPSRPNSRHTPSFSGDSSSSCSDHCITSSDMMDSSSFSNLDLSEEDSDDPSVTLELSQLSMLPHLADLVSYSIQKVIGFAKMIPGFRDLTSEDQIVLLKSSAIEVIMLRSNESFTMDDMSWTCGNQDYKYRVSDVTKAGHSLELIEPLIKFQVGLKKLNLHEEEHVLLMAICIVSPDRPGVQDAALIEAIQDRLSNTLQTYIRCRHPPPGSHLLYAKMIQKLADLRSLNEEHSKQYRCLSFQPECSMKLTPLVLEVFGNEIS

PPARγ [1] = target: T4, PPARγ (Homo sapiens, UniProt P37231); assay: cell-based; details: read-out: Transactivation activity EC50 PPARγ
T4 sequence (P37231 238-505 limits assumed): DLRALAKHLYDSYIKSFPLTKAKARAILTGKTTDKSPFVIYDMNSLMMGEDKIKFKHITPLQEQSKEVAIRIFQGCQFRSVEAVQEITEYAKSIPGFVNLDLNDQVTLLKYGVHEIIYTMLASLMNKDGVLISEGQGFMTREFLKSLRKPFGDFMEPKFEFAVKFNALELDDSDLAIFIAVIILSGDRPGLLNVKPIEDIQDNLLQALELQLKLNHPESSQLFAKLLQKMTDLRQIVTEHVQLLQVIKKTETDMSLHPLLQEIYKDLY

PPARγ [2] = target: T5, PPARγ (Homo sapiens, UniProt P37231); assay: Nuclear receptor cross-reactivity transactivation, PPARγ; details: concentrations up to 300 nM (Figure 7)
T5 construct: expressed in transfected cells
T5 sequence (P37231 1-505): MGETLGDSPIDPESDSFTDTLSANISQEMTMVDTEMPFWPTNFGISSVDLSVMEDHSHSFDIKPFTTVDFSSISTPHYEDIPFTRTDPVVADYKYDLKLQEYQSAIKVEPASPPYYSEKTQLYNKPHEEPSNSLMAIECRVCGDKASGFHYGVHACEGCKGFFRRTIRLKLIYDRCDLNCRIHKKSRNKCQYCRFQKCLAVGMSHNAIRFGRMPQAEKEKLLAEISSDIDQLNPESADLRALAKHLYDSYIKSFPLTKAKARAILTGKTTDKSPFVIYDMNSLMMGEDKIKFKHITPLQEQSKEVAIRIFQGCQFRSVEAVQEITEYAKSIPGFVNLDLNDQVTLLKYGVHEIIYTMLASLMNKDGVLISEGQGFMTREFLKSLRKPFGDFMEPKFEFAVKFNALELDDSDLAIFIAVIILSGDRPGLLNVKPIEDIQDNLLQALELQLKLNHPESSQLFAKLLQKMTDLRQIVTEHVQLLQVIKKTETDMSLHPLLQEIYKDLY

PPARδ = target: T6, PPARδ (Homo sapiens, UniProt Q03181); assay: cell-based; details: PPAR-GAL4 chimeric receptors, transiently transfected HEK-293 cells; ia = inactive at 10 μM; read-out: Transactivation activity EC50 PPARδ
T6 sequence (Q03181 171-441 limits assumed): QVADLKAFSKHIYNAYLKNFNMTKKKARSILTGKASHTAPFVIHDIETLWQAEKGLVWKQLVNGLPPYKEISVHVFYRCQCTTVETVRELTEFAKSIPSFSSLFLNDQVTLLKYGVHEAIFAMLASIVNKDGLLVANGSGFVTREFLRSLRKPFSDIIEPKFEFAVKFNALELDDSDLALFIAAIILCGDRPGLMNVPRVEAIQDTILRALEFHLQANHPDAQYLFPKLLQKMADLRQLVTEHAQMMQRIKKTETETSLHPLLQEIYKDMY

PPARα [3] = target: T7, PPARα (Homo sapiens, UniProt Q07869); assay: PPARα-GAL4 chimeric receptor transactivation in HEK-293 cells; details: PPAR-GAL4 chimeric receptors, transiently transfected HEK-293 cells; ia = inactive at 10 μM
T7 sequence (Q07869 200-468 limits assumed): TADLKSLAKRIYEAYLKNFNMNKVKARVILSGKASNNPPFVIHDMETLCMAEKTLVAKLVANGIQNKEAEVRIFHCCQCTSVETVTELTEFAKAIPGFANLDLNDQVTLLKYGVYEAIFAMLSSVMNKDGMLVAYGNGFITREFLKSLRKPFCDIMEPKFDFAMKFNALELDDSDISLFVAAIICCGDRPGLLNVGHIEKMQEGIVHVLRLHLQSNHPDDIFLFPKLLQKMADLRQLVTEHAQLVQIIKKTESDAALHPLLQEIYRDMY

RARα = target: T8, RARα (Homo sapiens, UniProt P10276); assay: Nuclear receptor cross-reactivity transactivation, RARα; details: concentrations up to 300 nM (Figure 7)
T8 construct: expressed in transfected cells
T8 sequence (P10276 1-462): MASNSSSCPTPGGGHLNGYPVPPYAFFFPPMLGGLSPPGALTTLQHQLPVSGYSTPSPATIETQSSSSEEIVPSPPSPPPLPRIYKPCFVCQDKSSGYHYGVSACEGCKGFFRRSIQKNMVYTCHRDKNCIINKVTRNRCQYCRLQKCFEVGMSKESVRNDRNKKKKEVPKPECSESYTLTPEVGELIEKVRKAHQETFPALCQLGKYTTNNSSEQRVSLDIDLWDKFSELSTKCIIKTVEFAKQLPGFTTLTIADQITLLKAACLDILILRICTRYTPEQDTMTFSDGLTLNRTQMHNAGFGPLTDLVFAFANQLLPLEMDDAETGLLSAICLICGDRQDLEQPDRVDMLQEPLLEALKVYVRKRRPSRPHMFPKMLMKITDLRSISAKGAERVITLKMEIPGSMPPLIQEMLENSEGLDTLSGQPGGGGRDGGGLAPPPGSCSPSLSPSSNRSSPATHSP

PPARα [4] = target: T9, PPARα (Rattus norvegicus, UniProt P37230); assay: Rat PPARα transactivation (species differences); details: CHO-K1 cells (footnote of Table 1)
T9 construct: expressed in transfected cells
T9 sequence (P37230 1-468): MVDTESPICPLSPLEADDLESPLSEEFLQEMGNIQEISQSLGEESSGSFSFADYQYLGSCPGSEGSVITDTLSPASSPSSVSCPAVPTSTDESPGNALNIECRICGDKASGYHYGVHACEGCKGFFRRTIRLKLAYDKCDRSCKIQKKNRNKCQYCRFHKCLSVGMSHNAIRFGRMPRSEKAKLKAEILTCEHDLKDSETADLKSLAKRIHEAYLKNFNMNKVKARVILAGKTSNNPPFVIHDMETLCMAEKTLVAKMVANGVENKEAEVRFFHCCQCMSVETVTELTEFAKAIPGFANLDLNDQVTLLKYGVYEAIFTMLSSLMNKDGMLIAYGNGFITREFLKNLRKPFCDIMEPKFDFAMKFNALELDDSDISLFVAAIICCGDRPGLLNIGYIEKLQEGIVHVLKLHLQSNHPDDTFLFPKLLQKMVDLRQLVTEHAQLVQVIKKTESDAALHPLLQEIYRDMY

PPARα [5] = target: T10, PPARα (Canis lupus familiaris, UniProt Q95N78); assay: Dog PPARα transactivation (species differences); details: CHO-K1 cells (footnote of Table 1)
T10 construct: expressed in transfected cells
T10 sequence (Q95N78 1-468): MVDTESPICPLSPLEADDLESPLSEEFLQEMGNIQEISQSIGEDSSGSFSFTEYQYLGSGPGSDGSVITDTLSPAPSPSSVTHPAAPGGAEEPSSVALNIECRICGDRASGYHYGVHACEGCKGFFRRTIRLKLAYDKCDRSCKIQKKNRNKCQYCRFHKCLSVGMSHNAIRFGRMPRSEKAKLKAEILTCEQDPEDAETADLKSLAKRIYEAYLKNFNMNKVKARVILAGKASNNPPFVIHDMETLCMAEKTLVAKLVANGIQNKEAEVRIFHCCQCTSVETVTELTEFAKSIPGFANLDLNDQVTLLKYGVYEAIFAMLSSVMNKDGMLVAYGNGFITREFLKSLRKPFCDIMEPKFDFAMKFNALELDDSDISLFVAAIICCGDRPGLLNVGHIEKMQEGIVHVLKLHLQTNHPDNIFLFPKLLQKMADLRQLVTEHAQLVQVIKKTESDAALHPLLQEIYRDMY

PPARα [6] = target: T7, PPARα; assay: PPARα-GAL4 chimeric receptor transactivation in CHO-K1 cells; details: human PPARα; CHO-K1 cells (footnote of Table 1); read-out: Transactivation activity EC50 PPARα Human

SMILES: CCCCOc1ccc(C[C@H](CC)C(=O)O)cc1CNC(=O)c1ccc(C(F)(F)F)cc1F [Compound 65, (S)-2-{3-[(2-fluoro-4-trifluoromethylbenzoylamino)methyl]-4-buthoxy-benzyl}butyric acid]
- activation of LXRα (LXRα): did not significantly activate
- activation of RXRα (RXRα): did not significantly activate
- activation of VDR (VDR): did not significantly activate
- EC50 (PPARγ [1]): 1.1 µM
- activation of PPARγ (PPARγ [2]): did not significantly activate
- EC50 (PPARδ): 0.00091 µM
- EC50 (PPARα [3]): 0.25 µM
- activation of RARα (RARα): did not significantly activate

SMILES: CC[C@@H](Cc1ccc(OC)c(C(=O)NCc2ccc(C(F)(F)F)cc2)c1)C(=O)O [KCL, (S)-2-[4-methoxy-3-(4-trifluoromethylbenzylcarbamoyl)phenylmethyl]butyric acid]
- EC50 (PPARα [4]): 5.2 µM
- EC50 (PPARα [5]): 0.16 µM
- EC50 (PPARα [6]): 0.06 µM
